Source: ChEMBL document CHEMBL4229453, “New lead elements for histamine H3 receptor ligands in the pyrrolo[2,3-d]pyrimidine class” (Bioorg Med Chem Lett, 2018)

Tests used:
[1] = target: Histamine H4 receptor (Homo sapiens) (UniProt Q9H3N8); test: Displacement of [3H]histamine from human H4 receptor at 1 uM relative to control
Histamine H3 receptor [2] = target: T1, Histamine H3 receptor (Homo sapiens, UniProt Q9Y5N1); test: Displacement of [3H]Nalpha-methylhistamine from human H3 receptor
Histamine H3 receptor [3] = target: T1, Histamine H3 receptor; test: Displacement of [3H]Nalpha-methylhistamine from human H3 receptor at 1 uM relative to control

T1 sequence (Q9Y5N1 whole entry): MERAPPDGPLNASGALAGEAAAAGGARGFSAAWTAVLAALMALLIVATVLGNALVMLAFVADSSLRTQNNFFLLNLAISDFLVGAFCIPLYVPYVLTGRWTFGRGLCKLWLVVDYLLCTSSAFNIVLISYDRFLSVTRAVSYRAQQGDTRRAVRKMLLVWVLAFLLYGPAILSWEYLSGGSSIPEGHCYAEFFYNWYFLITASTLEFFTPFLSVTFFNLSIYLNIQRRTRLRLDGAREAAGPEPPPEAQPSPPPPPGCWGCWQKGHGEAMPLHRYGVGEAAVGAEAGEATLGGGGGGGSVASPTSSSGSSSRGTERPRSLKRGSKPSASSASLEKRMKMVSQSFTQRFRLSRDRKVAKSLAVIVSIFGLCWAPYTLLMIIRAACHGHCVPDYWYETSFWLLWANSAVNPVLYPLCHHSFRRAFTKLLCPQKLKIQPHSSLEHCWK

| Structure (SMILES) | inhibition [1] [%] | Ki (Histamine H3 receptor [2]) [nM] | inhibition (Histamine H3 receptor [3]) [%] |
| --- | --- | --- | --- |
| CN1CCN(c2nc(Cl)nc3c2ccn3Cc2ccccc2)CC1 | < 80 | – | < 80 |
| Clc1nc(NCCN2CCOCC2)c2ccn(Cc3cccc4ccccc34)c2n1 | < 80 | – | < 80 |
| Clc1nc(NCCN2CCOCC2)c2ccn(Cc3ccccc3)c2n1 | < 80 | – | < 80 |
| Clc1nc(NCCN2CCOCC2)c2ccn(Cc3ccc4ccccc4c3)c2n1 | < 80 | – | < 80 |
| CN1CCN(c2nc(Cl)nc3c2ccn3Cc2cccc3ccccc23)CC1 | < 80 | – | < 80 |

Other lines, results leading:

| inhibition [1] [%] | Ki (Histamine H3 receptor [2]) [nM] | inhibition (Histamine H3 receptor [3]) [%] | Structure (SMILES) |
| --- | --- | --- | --- |
| < 80 | 490 | 96 | Clc1nc(N2CCC(N3CCCCC3)CC2)c2ccn(Cc3ccccc3)c2n1 |
| < 80 | 148 | 95 | Clc1nc(N2CCC(N3CCCCC3)CC2)c2ccn(Cc3cccc4ccccc34)c2n1 |
| < 80 | 1070 | < 80 | Clc1nc(N2CCC(N3CCOCC3)CC2)c2ccn(Cc3ccccc3)c2n1 |
| < 80 | – | < 80 | Clc1nc(N2CCC(N3CCOCC3)CC2)c2ccn(Cc3ccc4ccccc4c3)c2n1 |
| < 80 | – | < 80 | CN1CCN(c2nc(Cl)nc3c2ccn3Cc2ccc3ccccc3c2)CC1 |
| < 80 | 126 | 95 | Clc1nc(N2CCC(N3CCCCC3)CC2)c2ccn(Cc3ccc4ccccc4c3)c2n1 |
| < 80 | – | < 80 | Clc1nc(N2CCC(N3CCOCC3)CC2)c2ccn(Cc3cccc4ccccc34)c2n1 |
